In patent US11944609B1, “Antifungal ionic liquid and Amphotericin B combination” (KING ABDULAZIZ UNIVERISTY, priority 2023, dated 2024):

Tests used:
C. auris [1] = test: Antifungal susceptibility by broth microdilution (MIC) and SDA plating (MFC); type: cell-based, Candida auris; conditions: for Average MIC value / Average MFC value: compound alone, C. auris (2921); for Average MIC value: concentration giving 100% inhibition; for Average MFC value: no visible colonies on SDA after 24 h
Protocol: In this work, the antifungal activity of the ionic liquids (IPC4-IPC12) against C. auris was investigated in terms of minimum inhibitory concentration (MIC) and minimum fungicidal concentration (MFC). A stock solution of 20 mg/mL was prepared in 1% Dimethyl sulfoxide (DMSO; Sigma-Aldrich, USA). Fourteen different concentrations of test ILs were prepared by performing serial dilution in a flat bottom 96-well microtiter plate, followed by the addition of C. auris cells (0.5×103-2.5×10^3 cells/mL; 100 μL) which gave us the final test concentrations of ILs (5000-0.61 μg/mL). Amphotericin B was used as a positive control, 1% DMSO as a negative control, and drug-free control was used in each set of experiments. The optical density was determined at a wavelength of 600 nm using SpectraMax iD3 multi-mode microplate reader, and the concentration resulting in 100% inhibition was picked up as the MIC value. Post-MIC evaluation, MFC was estimated by administrating 10 μL of samples from the wells displaying MIC and beyond on a Sabouraud Dextrose Agar (SDA) plate. The plates were incubated at 35±2° C. for 24 h, and the concentration resulting in no visible colonies was documented as MFC value for respective ionic liquids.

C. auris [2] = test: Checkerboard microdilution assay of ionic liquids with amphotericin B, with varied ratio isobolograms; type: cell-based, Candida auris; conditions: for MIC of ionic liquids in combination with AmB: 1:1 combination with amphotericin B; for Average MIC values of individual compounds: alone; for FICb: fractional inhibitory concentration of amphotericin B; for FICa: fractional inhibitory concentration of the ionic liquid; for Type of interaction / ΣFIC: ionic liquid + amphotericin B; for Decrease in the MIC when used together: IPC8 + amphotericin B combination versus alone
Protocol: The type of interaction between ionic liquids and amphotericin B against C. auris was evaluated by the checkerboard microdilution method. The concentrations of ionic liquids used ranged from 5000-0.61 μg/mL, and amphotericin B was 64-0.06 μg/mL. Subsequently, equal volumes (50 μL) of ionic liquids and amphotericin B were dispensed into pre-determined wells, which were further supplemented with C. auris cells (0.5×103-2.5×10^3 cells/mL; 100 μL) followed by incubation at 35±2° C. for 24 h. Also, each experiment included DMSO (1%) was added as negative control along with growth and sterility controls. […] The interaction between the test compounds and amphotericin B was deduced according to the calculated coefficient of the sum of fractional inhibitory concentrations (ΣFIC).
[formula] MICa=MIC of the ionic liquids; MICb=MIC of amphotericin B. The FICI values were interpreted as ΣFIC≤0.5, synergy; ΣFIC>0.5-≤1, additivity; ΣFIC>1-<2, no interaction; ΣFIC≥2, antagonism.

[3] = Viscosity measurement (RHEOSENSE MicroVisc viscometer); type: physicochemical; conditions: 298K, atmospheric pressure
[4] = Density measurement (Density Meter DMA 501); type: physicochemical; conditions: 298K, atmospheric pressure
Protocol: The uncertainties in the density measurements, considering the sample handling and purity, are determined to be with an accuracy of 0.0001 g/cm3.

[5] = system: horse red blood cells (H-RBC); test: Haemolytic activity (cytotoxicity on red blood cells); type: cell-based
Protocol: The cytotoxicity of IPC8 on horse red blood cells (H-RBC) was checked by conducting a cytotoxicity assay. Briefly, the RBC was separated from the horse blood and was thoroughly washed with NaCl (150 mM) solution. Thereafter, RBC suspension (2%) was prepared in sterile PBS, followed by the addition (180 μL) to a microcentrifuge tube containing […] ([…]), the microcentrifuge tubes were kept aside for 45 min at 37° C. followed by centrifugation at 1300×g for 5 min. The supernatant (100 μL) was collected in a separate tube and mixed with 900 μL of sterile PBS. Aliquots (200 μL) were taken from each dilution and transferred to a 96-well flat bottom microtiter plate, and optical density was measured at 540 nm (SpectraMax iD3 multi-mode microplate reader, Molecular Devices). The negative control contained RBC suspension in PBS, and the positive control had RBC treated with 0.1% Triton X-100. To calculate the percentage of hemolysis below formula was used.

C. auris [6] = test: In vitro time-kill assay; type: cell-based, Candida auris; conditions: for Average log10 CFU/mL: healthy control 7.78
Protocol: The assay for determining the time-kill kinetics values of IPC8 against C. auris was carried out at various concentrations (½, 1, 2, and 4 times the MIC) against C. auris. The C. auris cell suspension with a starting inoculum of around 1×105 to 5×10^5 CFU/mL was incubated with/without IPC8 at 35° C.±2° C. and 150 rpm. Aliquots (100 μL) were taken out at predetermined time points (0, 2, 4, 6, 8, 12, and 24 h), and for determining CFU counts, the aliquots were serially diluted in sterile water and plate (20 μL) on SDA growth medium. The plates were incubated at 35° C.±2° C. for 24 to 48 h, and the number of colonies was counted using a colony counter. The experiment was performed in duplicate, and the result is articulated in log 10 viable CFU/mL.

[7] = nine ratios of IPC8 and amphotericin B (10:90 to 90:10), isobolograms

Which “Average MIC value” (C. auris [1]) does the source give for `CCCCCC[n+]1ccn2ccccc21.[Br-]` [IPC6, 1-Hexylimidazo[1,2-a] pyridinium bromide] here?
Its value is 39.06 µg/mL.

And the “Average MFC value” (C. auris [1])?
Its value is 78.12 µg/mL.

What about the “MIC of ionic liquids in combination with AmB” value (from here on “MIC of ionic liquids”) (C. auris [2]) of the same compound?
Its value is 9.76 µg/mL.

What about the “Average MIC values of individual compounds” value (shortened to “Average MIC values”) (C. auris [2]) of the same compound?
The value was 39.06 µg/mL.

And the FICb (C. auris [2])?
Its FICb is 0.25.

What about the FICa (C. auris [2]) of the same compound?
Its FICa is 0.24.

And the Type of interaction (C. auris [2])?
Its Type of interaction is “SYN (ΣFIC≤0.5, synergy)”.

What about the ΣFIC (C. auris [2]) of the same compound?
The ΣFIC was 0.49.

What about the Viscosity [3] of the same compound?
Its Viscosity is 14.7 mPa.

What about the Density [4] of the same compound?
Its Density is 1.0102 g/mL.

With `CCCCCCCCCC[n+]1ccn2ccccc21.[Br-]` [IPC10, 1-Decylimidazo[1,2-a] pyridinium bromide] as the compound, how does the “Average MIC value” (C. auris [1]) read?
Its value is 78.12 µg/mL.

And the “Average MFC value” (C. auris [1])?
Its value is 312.5 µg/mL.

And the “MIC of ionic liquids” value (C. auris [2])?
Its value is 19.53 µg/mL.

What about the “Average MIC values” value (C. auris [2]) of the same compound?
The value was 78.12 µg/mL.

And the FICb (C. auris [2])?
Its FICb is 0.5.

And the FICa (C. auris [2])?
Its FICa is 0.25.

What about the Type of interaction (C. auris [2]) of the same compound?
The Type of interaction was “ADD (ΣFIC>0.5-≤1, additivity)”.

What about the ΣFIC (C. auris [2]) of the same compound?
Its ΣFIC is 0.75.

What about the Viscosity [3] of the same compound?
The Viscosity was 27.20 mPa.

And the Density [4]?
Its Density is 1.0081 g/mL.

For triton X-100 [reference compound], which “Haemolysis (observation)” value [5] is on record?
The value was “clear haemolysis”.

For `CCCC[n+]1ccn2ccccc21.[Br-]` [IPC4, 1-Butylimidazo[1,2-a] pyridinium bromide], which “Average MIC value” (C. auris [1]) is on record?
Its value is 78.12 µg/mL.

And the “Average MFC value” (C. auris [1])?
The value was 312.5 µg/mL.

What about the “MIC of ionic liquids” value (C. auris [2]) of the same compound?
The value was 39.06 µg/mL.

What about the “Average MIC values” value (C. auris [2]) of the same compound?
The value was 78.12 µg/mL.

What about the FICb (C. auris [2]) of the same compound?
Its FICb is 1.0.

And the FICa (C. auris [2])?
Its FICa is 0.5.

And the Type of interaction (C. auris [2])?
Its Type of interaction is “No INT (ΣFIC>1-<2, no interaction)”.

And the ΣFIC (C. auris [2])?
Its ΣFIC is 1.5.

And the Viscosity [3]?
Its Viscosity is 4.14 mPa.

What about the Density [4] of the same compound?
The Density was 1.0310 g/mL.

What does the source list for `C[C@@H]1[C@H](O)[C@@H](C)/C=C/C=C/C=C/C=C/C=C/C=C/C=C/[C@H](O[C@@H]2O[C@H](C)[C@@H](O)[C@H](N)[C@@H]2O)C[C@@H]2O[C@](O)(C[C@@H](O)C[C@@H](O)[C@H](O)CC[C@@H](O)C[C@@H](O)CC(=O)O[C@H]1C)C[C@H](O)[C@H]2C(=O)O` [Amphotericin B]?
Average MIC value (C. auris [1]): 2.0 µg/mL; Average MIC value (C. auris [1]; listed as amphotericin B): 2 µg/mL; Average MFC value (C. auris [1]): 4.0 µg/mL; Average MFC value (C. auris [1]; listed as amphotericin B): 4 µg/mL; Decrease in the MIC when used together (C. auris [2]): four-fold; Average MIC values of individual compounds (C. auris [2]): 2.0 µg/mL

With `CCCCCCCC[n+]1ccn2ccccc21.[Br-]` [IPC8, 1-Octylimidazo[1,2-a] pyridinium bromide] as the compound, how does the “Fold lower MIC and MFC values compared to other tested ionic liquids” value (C. auris [1]; IPC8 versus other ionic liquids) read?
Its value is 3 to 8 fold.

And the “Average MIC value” (C. auris [1])?
The value was 4.88 µg/mL.

What about the “Average MFC value” (C. auris [1]) of the same compound?
The value was 9.76 µg/mL.

And the “Time to candidacidal endpoint” value (C. auris [6]; 2 times MIC)?
Its value is 12 h.

What about the “Time to 50% reduction in the log10 CFU/mL from the inoculum” value (C. auris [6]; MIC) of the same compound?
Its value is 12 h.

What about the “Average log10 CFU/mL” value (C. auris [6]; after 24 hr exposure to MIC) of the same compound?
Its value is 4.67 log10 CFU/mL.

What about the “Average log10 CFU/mL” value (C. auris [6]; after 24 hr exposure to ½ MIC) of the same compound?
Its value is 5.8 log10 CFU/mL.

And the “Time to 50% reduction in the number of CFU” value (C. auris [6]; four times MIC)?
The value was 2 h.

And the “Time to candidacidal endpoint” value (C. auris [6]; four times MIC)?
The value was 24 h.

What about the “Nature of activity in time-kill curve” value (C. auris [6]; kill of ≥log 3, concentration- and time-dependent) of the same compound?
Its value is “fungicidal”.

And the “Time to 50% reduction in the number of CFU” value (C. auris [6]; two times MIC)?
Its value is 4 h.

What about the “MIC of ionic liquids” value (C. auris [2]) of the same compound?
The value was 1.22 µg/mL.

What about the “Decrease in the MIC when used together” value (C. auris [2]) of the same compound?
The value was “four-fold”.

And the “Average MIC values” value (C. auris [2])?
The value was 4.88 µg/mL.

What about the FICb (C. auris [2]) of the same compound?
The FICb was 0.125.

And the FICa (C. auris [2])?
The FICa was 0.25.

And the Type of interaction (C. auris [2])?
The Type of interaction was “SYN (ΣFIC≤0.5, synergy)”.

What about the ΣFIC (C. auris [2]) of the same compound?
Its ΣFIC is 0.38.

And the “Number of ratios (out of nine) with additive interaction” value (C. auris [2]; [7])?
Its value is “two”.

And the “Number of ratios (out of nine) with strong synergistic effect” value (C. auris [2]; [7])?
Its value is “seven”.

What about the Haemolysis ([5]; 156.25 μg/mL) of the same compound?
The Haemolysis was 16.14%.

What about the Viscosity [3] of the same compound?
Its Viscosity is 25.21 mPa.

What about the Density [4] of the same compound?
Its Density is 1.0094 g/mL.

For `CCCCCCCCCCCC[n+]1ccn2ccccc21.[Br-]` [IPC12, 1-Dodecylimidazo[1,2-a] pyridinium bromide], which “Average MIC value” (C. auris [1]) is on record?
The value was 312.5 µg/mL.

And the “Average MFC value” (C. auris [1])?
The value was 625 µg/mL.

And the “MIC of ionic liquids” value (C. auris [2])?
Its value is 156.25 µg/mL.

And the “Average MIC values” value (C. auris [2])?
The value was 312.5 µg/mL.

What about the FICb (C. auris [2]) of the same compound?
The FICb was 0.5.

What about the FICa (C. auris [2]) of the same compound?
Its FICa is 0.25.

What about the Type of interaction (C. auris [2]) of the same compound?
The Type of interaction was “ADD (ΣFIC>0.5-≤1, additivity)”.

What about the ΣFIC (C. auris [2]) of the same compound?
The ΣFIC was 0.75.

And the Viscosity [3]?
Its Viscosity is 28.60 mPa.

And the Density [4]?
Its Density is 1.0049 g/mL.
